{
  "source": "paper PMC12316285",
  "about": "“The porphyran degradation system is complete, phylogenetically and geographically diverse across the gut microbiota of East Asian populations” (PLOS One, 2025)",
  "key": {"[1]": {"target": "T1, BpGH16C (Bacple_01703) (Phocaeicola plebeius, UniProt B5CYA6)", "T1 construct": "signal peptide removed; pET-28 or pFO4, HisTrap purified; three independent molecules in asymmetric unit of complex", "T1 sequence (B5CYA6 entry or part of it E178L)": "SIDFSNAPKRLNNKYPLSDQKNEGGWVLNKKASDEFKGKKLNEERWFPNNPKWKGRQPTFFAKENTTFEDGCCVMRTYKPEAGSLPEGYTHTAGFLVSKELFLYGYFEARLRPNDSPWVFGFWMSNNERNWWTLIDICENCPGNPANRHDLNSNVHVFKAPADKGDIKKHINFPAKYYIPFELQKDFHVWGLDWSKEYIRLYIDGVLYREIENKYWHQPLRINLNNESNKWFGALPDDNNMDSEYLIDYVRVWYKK", "assay": "X-ray crystal structure, […] Å, soaked crystal", "format": "binding", "settings": "inactive mutant; soaked with tetrasaccharide, only a trisaccharide modelled (subsites -1 to -3; Figure 2 legend says disaccharide); pH 7.5"}, "[2]": {"target": "T2, BpS1_11 (Bacple_01701) (Phocaeicola plebeius, UniProt B5CYA4)", "T2 construct": "signal peptide removed; pET-28 or pFO4, HisTrap purified; formylglycine sulfatase (Ser83 is formylglycine in mature enzyme)", "T2 sequence (B5CYA4 entry or part of it)": "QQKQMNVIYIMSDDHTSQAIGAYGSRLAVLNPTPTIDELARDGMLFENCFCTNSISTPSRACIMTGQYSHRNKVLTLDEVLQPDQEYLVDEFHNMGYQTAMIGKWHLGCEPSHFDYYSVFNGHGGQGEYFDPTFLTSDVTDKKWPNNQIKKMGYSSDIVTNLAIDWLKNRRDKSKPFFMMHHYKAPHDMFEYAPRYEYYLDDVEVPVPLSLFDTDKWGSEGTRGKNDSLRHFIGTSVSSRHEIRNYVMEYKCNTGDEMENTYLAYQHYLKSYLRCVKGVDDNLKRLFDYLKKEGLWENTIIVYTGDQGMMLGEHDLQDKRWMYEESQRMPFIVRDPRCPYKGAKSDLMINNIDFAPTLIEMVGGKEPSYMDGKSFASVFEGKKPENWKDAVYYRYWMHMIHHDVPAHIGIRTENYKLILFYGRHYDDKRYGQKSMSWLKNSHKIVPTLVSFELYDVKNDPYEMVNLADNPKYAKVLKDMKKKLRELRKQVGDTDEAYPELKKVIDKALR", "assay": "1H NMR of products", "format": "biochemical", "settings": "desulfation of the non-reducing-end L-galactose 6-sulfate"}, "[3]": {"target": "T3, BpGH2C (Bacple_01706) (Phocaeicola plebeius, UniProt B5CYA9)", "T3 construct": "signal peptide removed; pET-28 or pFO4, HisTrap purified", "T3 sequence (B5CYA9 1-1086)": "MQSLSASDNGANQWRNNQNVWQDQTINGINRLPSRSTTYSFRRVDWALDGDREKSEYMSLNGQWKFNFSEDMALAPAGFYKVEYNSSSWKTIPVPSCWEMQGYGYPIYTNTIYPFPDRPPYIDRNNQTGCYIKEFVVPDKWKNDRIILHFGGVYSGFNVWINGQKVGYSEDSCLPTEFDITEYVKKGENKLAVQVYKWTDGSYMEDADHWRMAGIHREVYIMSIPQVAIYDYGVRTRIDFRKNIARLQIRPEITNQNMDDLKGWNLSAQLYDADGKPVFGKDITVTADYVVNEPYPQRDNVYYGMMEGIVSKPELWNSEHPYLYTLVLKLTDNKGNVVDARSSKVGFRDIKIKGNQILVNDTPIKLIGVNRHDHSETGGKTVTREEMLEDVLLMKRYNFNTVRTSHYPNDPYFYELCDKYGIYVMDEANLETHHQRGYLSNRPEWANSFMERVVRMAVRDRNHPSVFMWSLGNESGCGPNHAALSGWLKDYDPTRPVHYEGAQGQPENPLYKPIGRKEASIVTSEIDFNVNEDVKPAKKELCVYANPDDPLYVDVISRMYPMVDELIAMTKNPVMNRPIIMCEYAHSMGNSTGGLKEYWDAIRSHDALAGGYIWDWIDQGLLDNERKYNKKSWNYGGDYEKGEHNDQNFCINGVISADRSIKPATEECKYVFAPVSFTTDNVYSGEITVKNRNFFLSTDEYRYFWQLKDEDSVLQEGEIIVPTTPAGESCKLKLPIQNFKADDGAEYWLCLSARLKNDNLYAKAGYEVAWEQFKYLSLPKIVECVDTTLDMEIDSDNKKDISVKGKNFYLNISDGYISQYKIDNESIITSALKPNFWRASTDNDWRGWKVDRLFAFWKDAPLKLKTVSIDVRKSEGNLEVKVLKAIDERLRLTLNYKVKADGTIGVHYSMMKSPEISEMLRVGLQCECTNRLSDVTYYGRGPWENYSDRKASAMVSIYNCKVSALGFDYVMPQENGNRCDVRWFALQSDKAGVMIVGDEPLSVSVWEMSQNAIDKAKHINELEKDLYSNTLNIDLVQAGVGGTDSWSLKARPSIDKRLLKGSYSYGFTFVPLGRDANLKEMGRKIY", "assay": "1H NMR after sequential enzyme incubation", "format": "biochemical", "settings": "substrate made in situ by BpS1_[…] then BpGH29"}},
  "data": [
    {"molecule": "O=S(=O)(O)OC[C@@H]1O[C@@H](O[C@H]2[C@@H](O)[C@@H](CO)O[C@@H](O[C@H]3[C@@H](O)[C@H](O)[C@H](O[C@H]4[C@@H](O)[C@@H](CO)OC(O)[C@@H]4O)O[C@H]3COS(=O)(=O)O)[C@@H]2O)[C@@H](O)[C@H](O)[C@@H]1O", "note": "(stereo partly drawn) [L-α-6O-sulfate-Gal-(1 → 3)-D-β-Gal-(1 → 4)-L-α-6O-sulfate-Gal-(1 → 3)-D-a/β-Gal]", "values": [
      {"measurement": "X-ray crystal structure, 1.8 Å, soaked crystal", "setting": "[1]", "result": "we crystallized the E145L inactive mutant with the tetrasaccharide"},
      {"measurement": "1H NMR of products", "setting": "[2]", "result": "After desulfation of the tetra-saccharides"}
    ]},
    {"molecule": "O=S(=O)(O)OC[C@@H]1O[C@@H](O[C@H]2[C@@H](O)[C@@H](CO)OC(O)[C@@H]2O)[C@@H](O)[C@H](O)[C@@H]1O[C@@H]1O[C@H](CO)[C@H](O)[C@H](O)[C@H]1O", "note": "(stereo partly drawn) [trisaccharide with non-methylated D-galactose at the non-reducing end]", "values": [
      {"measurement": "1H NMR after sequential enzyme incubation", "setting": "[3]", "result": "methylated or non-methylated D-galactose residue located at the non-reducing end of the trisaccharide was cleaved"}
    ]}
  ]
}
